Reference: US20200368315A1, “ANTIMICROBIAL PEPTIDES AND ADMIXTURES THEREOF SHOWING ANTIMICROBIAL ACTIVITY AGAINST GRAM-NEGATIVE PATHOGENS” (priority 2017, published 2020)
Converted amounts (≈) assume the structure as drawn.

Assays:
E. coli LMG15862 = assay type: cell-based, Escherichia coli; conditions: nisin + GNP
In short: (§1)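 Chequerboard broth microdilution in MHB: nisin and GNPs each two-fold serially diluted starting from their individual MICs, bacterial suspension added to 100 µL final volume. Synergy scored by FIC index (sum of combination MIC/single MIC for each agent): ≤0.5 synergistic, 0.5–1 additive, 1–2 indifferent, >2 antagonistic.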

P. aeruginosa LMG 6395 = assay type: cell-based, Pseudomonas aeruginosa; conditions: nisin + GNP
In short: as §1

K. pneumoniae LMG20218 = assay type: cell-based, Klebsiella pneumoniae; conditions: nisin + GNP
In short: as §1

A. baumannii LMG01041 = assay type: cell-based, Acinetobacter baumannii; conditions: nisin + GNP
In short: as §1

E. aerogenes LMG 02094 = assay type: cell-based, Enterobacter aerogenes; conditions: nisin + GNP
In short: as §1

L. lactis MG1363 = experiment: microbe, parasite or virus in culture; conditions: Lactococcus lactis, MG1363, read-out: MIC value of antimicrobial compounds alone

SMILES	FICI (E. coli LMG15862)	FICI (P. aeruginosa LMG 6395)	FICI (K. pneumoniae LMG20218)	FICI (A. baumannii LMG01041)	FICI (E. aerogenes LMG 02094)	MIC (L. lactis MG1363)
CC[C@@H](C)[C@@H](NC(=O)[C@@H](CCCNC(=N)N)NC(=O)[C@@H](CCCNC(=N)N)NC(=O)[C@@H](Cc1ccccc1)NC(=O)[C@@H](CC(C)C)NC(=O)[C@@H](CCCNC(=N)N)NC(=O)[C@H](N)CCCNC(=N)N)C(=O)N[C@H](CC(C)C)C(=O)N[C@H](CCCNC(=N)N)C(=O)N[C@H](Cc1c[nH]c2ccccc12)C(=O)N[C@H](CC(C)C)C(N)=O [GNP-D6]	0.375	0.25	0.375	0.313	0.375	
CN[C@H](CC(C)C)C(=O)N[C@H]1C(=O)N[C@@H](CC(N)=O)C(=O)N[C@H]2C(=O)N[C@H]3C(=O)N[C@H](C(=O)N[C@H](C(=O)O)c4cc(O)cc(O)c4-c4cc3ccc4O)[C@H](O)c3ccc(c(Cl)c3)Oc3cc2cc(c3O[C@@H]2O[C@H](CO)[C@@H](O)[C@H](O)[C@H]2O[C@H]2C[C@](C)(N)[C@H](O)[C@H](C)O2)Oc2ccc(cc2Cl)[C@H]1O [Vancomycin, reference compound]						0.125 µM (≈ 0.181 µg/mL)
